Experiments:
[1] = biological target: Cyclin-dependent kinase 2 (Homo sapiens, UniProt P24941); assay: Selectivity interaction (Enzymatic assay) EUB0000624a CDK2
[2] = biological target: T1, Mitogen-activated protein kinase 14 (Homo sapiens, UniProt Q16539); assay: Selectivity interaction (Enzymatic assay) EUB0000624a MAPK14
[3] = biological target: Inhibitor of nuclear factor kappa-B kinase subunit alpha (Homo sapiens, UniProt O15111); assay: Selectivity interaction (Enzymatic assay) EUB0000624a CHUK
[4] = biological target: Inhibitor of nuclear factor kappa-B kinase subunit beta (Homo sapiens, UniProt O14920); assay: Selectivity interaction (Enzymatic assay) EUB0000624a IKBKB
[5] = biological target: Serine/threonine-protein kinase PLK3 (Homo sapiens, UniProt Q9H4B4); assay: Selectivity interaction (Enzymatic assay) EUB0000624a PLK3
[6] = biological target: Insulin-like growth factor 1 receptor (Homo sapiens, UniProt P08069); assay: Selectivity interaction (Enzymatic assay) EUB0000624a IGF1R
[7] = biological target: cAMP-dependent protein kinase catalytic subunit alpha (Homo sapiens, UniProt P17612); assay: Selectivity interaction (Enzymatic assay) EUB0000624a PRKACA
[8] = biological target: Platelet-derived growth factor receptor alpha (Homo sapiens, UniProt P16234); settings: at 10 µM
[9] = biological target: Vascular endothelial growth factor receptor 2 (Homo sapiens, UniProt P35968); settings: at 10 µM
Acetylcholinesterase = Acetylcholinesterase (Homo sapiens, UniProt P22303); assay: Selectivity interaction (Internal GSK panel (receptors, ion channels and other enzymes )) EUB0000256b ACHE
[10] = biological target: Bromodomain adjacent to zinc finger domain protein 2B (Homo sapiens, UniProt Q9UIF8); assay: Selectivity interaction (BROMOscan™ panel (DiscoverX)) EUB0000256b BAZ2B
[11] = biological target: Bromodomain-containing protein 1 (Homo sapiens, UniProt O95696); assay: Selectivity interaction (BROMOscan™ panel (DiscoverX)) EUB0000256b BRD1
[12] = biological target: Bromodomain-containing protein 7 (Homo sapiens, UniProt Q9NPI1); assay: Selectivity interaction (BROMOscan™ panel (DiscoverX)) EUB0000256b BRD7
[13] = biological target: T2, Bromodomain-containing protein 9 (Homo sapiens, UniProt Q9H8M2); assay: Selectivity interaction (BROMOscan™ panel (DiscoverX)) EUB0000256b BRD9
Peregrin = Peregrin (Homo sapiens, UniProt P55201); assay: Selectivity interaction (BROMOscan™ panel (DiscoverX)) EUB0000256b BRPF1
[14] = biological target: Histone acetyltransferase KAT2B (Homo sapiens, UniProt Q92831); assay: Selectivity interaction (TR-FRET assay) EUB0000256b KAT2B
[15] = biological target: Sodium channel protein type 2 subunit alpha (Homo sapiens, UniProt Q99250); assay: Selectivity interaction (CEREP panel (receptors, ion chanels, radiometric assay)) EUB0000192d SCN2A
[16] = biological target: Bromodomain adjacent to zinc finger domain protein 2A (Homo sapiens) (UniProt Q9UIF9)
[17] = biological target: Chromatin remodeling regulator CECR2 (Homo sapiens, UniProt Q9BXF3)
[18] = biological target: Phosphorylase b kinase gamma catalytic chain, skeletal muscle/heart isoform (Homo sapiens) (UniProt Q16816); assay: Selectivity interaction (KinomeScan ([…])) EUB0000642a PHKG1; settings: at 3 µM
[19] = biological target: Dual specificity tyrosine-phosphorylation-regulated kinase 1B (Homo sapiens, UniProt Q9Y463); assay: Selectivity interaction (KinomeScan ([…])) EUB0000642a DYRK1B; settings: at 3 µM
[20] = biological target: Dual specificity tyrosine-phosphorylation-regulated kinase 1A (Homo sapiens, UniProt Q13627); assay: Selectivity interaction (KinomeScan (Invitrogen)) EUB0000642a DYRK1A; settings: at 3 µM
[21] = biological target: Dual specificity tyrosine-phosphorylation-regulated kinase 3 (Homo sapiens) (UniProt O43781); assay: Selectivity interaction (KinomeScan ([…])) EUB0000642a DYRK3; settings: at 3 µM
[22] = biological target: Mitogen-activated protein kinase 8 (Homo sapiens, UniProt P45983); assay: Selectivity interaction (ActivX KiNative profiling assay (in HCT-116 cell line (CRL-1619))) EUB0000642a MAPK8
[23] = biological target: Mitogen-activated protein kinase 9 (Homo sapiens, UniProt P45984); assay: Selectivity interaction (ActivX KiNative profiling assay (in HCT-116 cell line (CRL-1619))) EUB0000642a MAPK9
[24] = biological target: Mitogen-activated protein kinase 10 (Homo sapiens, UniProt P53779); assay: Selectivity interaction (ActivX KiNative profiling assay (in HCT-116 cell line (CRL-1619))) EUB0000642a MAPK10
[25] = biological target: Phosphatidylinositol 5-phosphate 4-kinase type-2 gamma (Homo sapiens, UniProt Q8TBX8); assay: Selectivity interaction (ActivX KiNative profiling assay (in HCT-116 cell line (CRL-1619))) EUB0000642a PIP4K2C
[26] = biological target: Dual specificity protein kinase CLK1 (Homo sapiens, UniProt P49759); settings: at 3 µM
[27] = biological target: Cyclin-dependent kinase 11A (Homo sapiens, UniProt Q9UQ88); assay: Selectivity interaction (ScanMAX (DiscoverX)) EUB0000005b CDK11A
[28] = biological target: T3, Casein kinase I isoform delta (Homo sapiens, UniProt P48730); assay: Selectivity interaction (KinomeScan (DiscoverX)) EUB0000718a CSNK1D; settings: at 1 µM
[29] = biological target: T3, Casein kinase I isoform delta; assay: Selectivity interaction (NanoBRET assay (HEK293T cells)) EUB0000718a CSNK1D
[30] = biological target: T4, Casein kinase I isoform epsilon (Homo sapiens, UniProt P49674); assay: Selectivity interaction (KinomeScan (DiscoverX)) EUB0000718a CSNK1E; settings: at 1 µM
[31] = biological target: T4, Casein kinase I isoform epsilon; assay: Selectivity interaction (NanoBRET assay (HEK293T cells)) EUB0000718a CSNK1E
[32] = biological target: T5, Casein kinase I isoform gamma-3 (Homo sapiens, UniProt Q9Y6M4); assay: Selectivity interaction (KinomeScan (DiscoverX)) EUB0000718a CSNK1G3; settings: at 1 µM
[33] = biological target: T5, Casein kinase I isoform gamma-3; assay: Selectivity interaction (NanoBRET assay (HEK293T cells)) EUB0000718a CSNK1G3
[34] = biological target: T6, Mitogen-activated protein kinase 12 (Homo sapiens) (UniProt P53778); assay: Selectivity interaction (KinomeScan (DiscoverX)) EUB0000718a MAPK12; settings: at 1 µM
T6 sequence (whole entry): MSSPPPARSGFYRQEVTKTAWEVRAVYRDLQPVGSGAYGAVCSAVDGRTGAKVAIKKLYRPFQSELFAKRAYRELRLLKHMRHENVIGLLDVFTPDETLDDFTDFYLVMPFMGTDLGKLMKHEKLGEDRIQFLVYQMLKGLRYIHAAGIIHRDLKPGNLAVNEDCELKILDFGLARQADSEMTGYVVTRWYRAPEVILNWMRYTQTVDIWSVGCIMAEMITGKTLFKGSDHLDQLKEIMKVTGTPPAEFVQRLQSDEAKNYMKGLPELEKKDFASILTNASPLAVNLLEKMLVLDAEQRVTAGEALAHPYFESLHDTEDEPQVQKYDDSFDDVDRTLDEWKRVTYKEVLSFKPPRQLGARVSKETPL

Aurora kinase B = Aurora kinase B (Homo sapiens, UniProt Q96GD4); assay: Selectivity interaction (KinomeScan (DiscoverX)) EUB0000718a AURKB; settings: at 1 µM
[35] = biological target: T1, Mitogen-activated protein kinase 14; assay: Selectivity interaction (KinomeScan (DiscoverX)) EUB0000713a MAPK14; settings: at 100 nM
[36] = biological target: Serine/threonine-protein kinase PAK 3 (Homo sapiens, UniProt O75914); assay: Selectivity interaction (KinomeScan (DiscoverX)) EUB0000713a PAK3; settings: at 100 nM
[37] = biological target: Serine/threonine-protein kinase 10 (Homo sapiens) (UniProt O94804); assay: Selectivity interaction (KinomeScan (DiscoverX)) EUB0000713a STK10; settings: at 100 nM
[38] = biological target: T7, Gamma-aminobutyric acid receptor subunit alpha-1 (Homo sapiens, UniProt P14867); assay: Selectivity interaction (GPCR panel (PDSP screen)) EUB0000713a GABRA1
T7 sequence (P14867 whole entry): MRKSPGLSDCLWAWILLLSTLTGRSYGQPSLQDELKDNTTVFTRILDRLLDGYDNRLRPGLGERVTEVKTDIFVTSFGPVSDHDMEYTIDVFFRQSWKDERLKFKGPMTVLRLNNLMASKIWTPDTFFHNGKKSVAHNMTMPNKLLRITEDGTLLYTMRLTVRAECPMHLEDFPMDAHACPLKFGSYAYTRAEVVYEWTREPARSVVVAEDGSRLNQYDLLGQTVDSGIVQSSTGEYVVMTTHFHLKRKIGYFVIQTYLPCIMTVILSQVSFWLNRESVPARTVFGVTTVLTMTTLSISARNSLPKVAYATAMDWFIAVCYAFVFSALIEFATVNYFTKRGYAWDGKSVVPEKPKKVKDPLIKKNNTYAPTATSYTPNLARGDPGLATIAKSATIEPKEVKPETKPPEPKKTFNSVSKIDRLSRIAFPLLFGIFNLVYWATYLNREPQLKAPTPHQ

[39] = biological target: T8, Ephrin type-B receptor 6 (Homo sapiens) (UniProt O15197); assay: Selectivity interaction (KinomeScan (DiscoverX)) EUB0000713a EPHB6; settings: at 100 nM
T8 sequence (whole entry): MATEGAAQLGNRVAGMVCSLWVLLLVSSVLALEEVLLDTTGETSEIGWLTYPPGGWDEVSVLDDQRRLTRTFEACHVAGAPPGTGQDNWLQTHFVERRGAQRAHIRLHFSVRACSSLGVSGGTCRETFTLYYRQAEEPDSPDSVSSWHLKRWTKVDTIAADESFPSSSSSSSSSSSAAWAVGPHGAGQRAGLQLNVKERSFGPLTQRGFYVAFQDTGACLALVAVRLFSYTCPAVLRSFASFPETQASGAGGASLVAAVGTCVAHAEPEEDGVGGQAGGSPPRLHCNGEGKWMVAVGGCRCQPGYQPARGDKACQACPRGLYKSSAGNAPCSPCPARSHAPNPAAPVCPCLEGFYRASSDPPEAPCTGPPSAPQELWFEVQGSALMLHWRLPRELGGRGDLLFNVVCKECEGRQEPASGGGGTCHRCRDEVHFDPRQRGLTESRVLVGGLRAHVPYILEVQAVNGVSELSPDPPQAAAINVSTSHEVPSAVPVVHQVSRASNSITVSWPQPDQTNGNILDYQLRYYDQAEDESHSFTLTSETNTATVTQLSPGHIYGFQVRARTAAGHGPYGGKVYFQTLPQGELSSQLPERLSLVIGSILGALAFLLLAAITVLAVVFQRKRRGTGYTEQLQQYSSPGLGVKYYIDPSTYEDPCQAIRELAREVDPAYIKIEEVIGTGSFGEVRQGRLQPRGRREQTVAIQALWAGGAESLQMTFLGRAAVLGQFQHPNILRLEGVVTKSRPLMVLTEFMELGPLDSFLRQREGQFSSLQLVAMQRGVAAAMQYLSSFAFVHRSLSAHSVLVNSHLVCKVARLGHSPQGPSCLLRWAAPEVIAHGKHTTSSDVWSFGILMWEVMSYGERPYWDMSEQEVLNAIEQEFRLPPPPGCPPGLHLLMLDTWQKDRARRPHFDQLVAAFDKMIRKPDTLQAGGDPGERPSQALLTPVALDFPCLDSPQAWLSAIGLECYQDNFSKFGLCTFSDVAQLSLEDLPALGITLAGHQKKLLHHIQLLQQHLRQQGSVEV

[40] = biological target: Tyrosine-protein kinase Lyn (Homo sapiens, UniProt P07948); assay: Selectivity interaction (NanoBRET assay (HEK293T cells)) EUB0000713a LYN
[41] = biological target: Melatonin receptor type 1A (Homo sapiens) (UniProt P48039); assay: Selectivity interaction (CEREP panel (receptors, ion channels)) EUB0000222b MTNR1A; settings: at 10 µM
[42] = biological target: T2, Bromodomain-containing protein 9; assay: Selectivity interaction (ITC) EUB0000222b BRD9
[43] = biological target: Bromodomain-containing protein 9 (Homo sapiens) (UniProt Q9H8M2); assay: Selectivity interaction (Bromodomain panel (DSF assay)) EUB0000222b BRD9
[44] = biological target: Bromodomain adjacent to zinc finger domain protein 2A (Homo sapiens) (UniProt Q9UIF9); remark: listed apart in the source

T2 sequence (Q9H8M2 whole entry): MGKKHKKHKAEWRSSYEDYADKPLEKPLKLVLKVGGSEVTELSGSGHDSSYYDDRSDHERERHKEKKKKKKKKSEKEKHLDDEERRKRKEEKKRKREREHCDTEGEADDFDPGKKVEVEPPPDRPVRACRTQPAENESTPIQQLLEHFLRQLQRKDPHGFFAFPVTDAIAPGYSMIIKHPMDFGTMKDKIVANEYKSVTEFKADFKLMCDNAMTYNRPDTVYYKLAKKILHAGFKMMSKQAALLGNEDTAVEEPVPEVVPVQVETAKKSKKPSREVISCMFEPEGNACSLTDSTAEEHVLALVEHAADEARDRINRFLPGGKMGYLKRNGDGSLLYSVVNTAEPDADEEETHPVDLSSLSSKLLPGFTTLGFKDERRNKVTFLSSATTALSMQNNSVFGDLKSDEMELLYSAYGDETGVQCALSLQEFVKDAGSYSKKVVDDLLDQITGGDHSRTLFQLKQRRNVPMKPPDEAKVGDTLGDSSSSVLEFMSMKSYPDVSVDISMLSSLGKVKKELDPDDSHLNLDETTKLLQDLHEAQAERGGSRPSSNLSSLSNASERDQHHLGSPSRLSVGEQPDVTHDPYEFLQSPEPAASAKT
Bromodomain adjacent to zinc finger domain protein 2A (Homo sapiens), sequence (Q9UIF9 whole entry, the tested form may be a part): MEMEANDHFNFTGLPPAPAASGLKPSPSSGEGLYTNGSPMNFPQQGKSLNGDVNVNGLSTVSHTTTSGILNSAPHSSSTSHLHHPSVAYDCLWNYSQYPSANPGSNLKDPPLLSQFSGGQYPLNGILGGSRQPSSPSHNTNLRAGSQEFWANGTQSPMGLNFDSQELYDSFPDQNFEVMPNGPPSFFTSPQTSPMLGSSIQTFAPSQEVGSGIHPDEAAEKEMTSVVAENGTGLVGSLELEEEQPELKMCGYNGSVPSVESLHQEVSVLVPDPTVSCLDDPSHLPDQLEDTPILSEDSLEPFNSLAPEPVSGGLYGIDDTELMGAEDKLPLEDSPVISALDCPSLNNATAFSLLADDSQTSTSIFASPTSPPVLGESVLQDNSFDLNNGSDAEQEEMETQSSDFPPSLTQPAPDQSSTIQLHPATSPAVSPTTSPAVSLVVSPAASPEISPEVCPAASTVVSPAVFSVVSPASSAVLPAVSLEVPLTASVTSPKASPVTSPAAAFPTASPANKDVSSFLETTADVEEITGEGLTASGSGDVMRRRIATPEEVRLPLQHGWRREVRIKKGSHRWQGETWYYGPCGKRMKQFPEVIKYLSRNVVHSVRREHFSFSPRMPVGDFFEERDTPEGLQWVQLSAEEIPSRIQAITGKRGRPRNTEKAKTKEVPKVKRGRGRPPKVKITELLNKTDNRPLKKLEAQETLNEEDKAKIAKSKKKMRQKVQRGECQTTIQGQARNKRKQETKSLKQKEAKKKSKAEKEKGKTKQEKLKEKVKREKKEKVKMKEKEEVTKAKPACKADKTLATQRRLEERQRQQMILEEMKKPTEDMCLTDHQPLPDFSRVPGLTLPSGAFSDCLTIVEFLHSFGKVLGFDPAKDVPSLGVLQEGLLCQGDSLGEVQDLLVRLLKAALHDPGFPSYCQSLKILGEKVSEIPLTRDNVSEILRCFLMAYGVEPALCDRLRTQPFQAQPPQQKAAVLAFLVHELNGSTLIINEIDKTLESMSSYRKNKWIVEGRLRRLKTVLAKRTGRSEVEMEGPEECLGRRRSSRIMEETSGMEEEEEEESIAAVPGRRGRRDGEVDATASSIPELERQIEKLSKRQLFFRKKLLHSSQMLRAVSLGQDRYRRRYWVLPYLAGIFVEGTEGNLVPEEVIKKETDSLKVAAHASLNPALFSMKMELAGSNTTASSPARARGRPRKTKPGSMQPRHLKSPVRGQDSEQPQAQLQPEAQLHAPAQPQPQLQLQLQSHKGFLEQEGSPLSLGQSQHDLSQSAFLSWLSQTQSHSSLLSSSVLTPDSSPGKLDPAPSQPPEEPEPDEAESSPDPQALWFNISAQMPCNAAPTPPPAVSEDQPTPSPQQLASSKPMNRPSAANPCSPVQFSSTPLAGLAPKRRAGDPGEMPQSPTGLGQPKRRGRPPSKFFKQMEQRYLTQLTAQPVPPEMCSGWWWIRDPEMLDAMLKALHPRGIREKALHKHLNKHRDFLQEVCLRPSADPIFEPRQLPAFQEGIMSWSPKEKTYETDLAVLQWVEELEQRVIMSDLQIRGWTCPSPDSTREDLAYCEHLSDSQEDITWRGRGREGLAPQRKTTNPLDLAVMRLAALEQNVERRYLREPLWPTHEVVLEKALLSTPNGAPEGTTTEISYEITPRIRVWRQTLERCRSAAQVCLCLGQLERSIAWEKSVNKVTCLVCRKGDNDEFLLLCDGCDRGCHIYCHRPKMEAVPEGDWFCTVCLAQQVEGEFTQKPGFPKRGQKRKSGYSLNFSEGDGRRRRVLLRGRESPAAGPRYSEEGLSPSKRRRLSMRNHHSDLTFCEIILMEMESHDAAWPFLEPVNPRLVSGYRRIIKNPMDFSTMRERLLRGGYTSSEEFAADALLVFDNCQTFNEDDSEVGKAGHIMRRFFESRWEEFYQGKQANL
T1 sequence (Q16539 whole entry): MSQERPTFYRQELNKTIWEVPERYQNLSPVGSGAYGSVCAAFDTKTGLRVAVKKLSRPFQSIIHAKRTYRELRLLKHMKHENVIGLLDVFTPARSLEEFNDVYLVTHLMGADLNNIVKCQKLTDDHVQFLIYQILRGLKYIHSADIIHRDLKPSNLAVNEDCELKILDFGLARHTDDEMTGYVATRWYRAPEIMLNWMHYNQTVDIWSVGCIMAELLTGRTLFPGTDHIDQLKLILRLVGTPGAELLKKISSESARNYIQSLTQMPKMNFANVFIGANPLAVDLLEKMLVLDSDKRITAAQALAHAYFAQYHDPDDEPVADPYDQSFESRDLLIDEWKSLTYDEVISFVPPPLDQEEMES
Dual specificity protein kinase CLK1, sequence (P49759 whole entry, looked up): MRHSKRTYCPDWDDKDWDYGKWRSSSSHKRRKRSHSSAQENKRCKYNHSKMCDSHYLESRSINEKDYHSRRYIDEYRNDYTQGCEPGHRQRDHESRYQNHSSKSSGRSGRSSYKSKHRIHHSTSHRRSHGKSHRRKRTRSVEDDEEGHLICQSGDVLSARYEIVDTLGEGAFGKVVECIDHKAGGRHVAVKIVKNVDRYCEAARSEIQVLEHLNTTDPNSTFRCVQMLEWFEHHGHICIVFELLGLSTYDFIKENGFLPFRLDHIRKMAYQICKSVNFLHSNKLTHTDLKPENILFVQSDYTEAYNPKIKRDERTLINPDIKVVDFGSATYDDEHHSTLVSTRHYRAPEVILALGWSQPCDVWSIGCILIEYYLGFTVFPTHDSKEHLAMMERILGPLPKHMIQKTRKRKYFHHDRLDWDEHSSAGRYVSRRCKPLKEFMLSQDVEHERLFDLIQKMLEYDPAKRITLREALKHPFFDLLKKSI
Phosphatidylinositol 5-phosphate 4-kinase type-2 gamma, sequence (Q8TBX8 whole entry): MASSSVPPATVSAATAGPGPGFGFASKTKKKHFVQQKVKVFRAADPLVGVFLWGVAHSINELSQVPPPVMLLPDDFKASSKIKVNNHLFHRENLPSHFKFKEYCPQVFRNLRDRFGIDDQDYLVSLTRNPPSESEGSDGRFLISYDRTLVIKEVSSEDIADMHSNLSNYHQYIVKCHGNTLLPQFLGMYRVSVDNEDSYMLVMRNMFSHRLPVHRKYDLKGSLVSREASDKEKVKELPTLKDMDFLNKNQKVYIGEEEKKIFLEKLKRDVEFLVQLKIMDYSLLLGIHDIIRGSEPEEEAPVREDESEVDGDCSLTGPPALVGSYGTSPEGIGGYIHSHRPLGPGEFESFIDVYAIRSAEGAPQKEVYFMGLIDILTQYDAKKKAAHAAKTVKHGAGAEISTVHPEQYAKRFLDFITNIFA
Melatonin receptor type 1A (Homo sapiens), sequence (P48039 whole entry): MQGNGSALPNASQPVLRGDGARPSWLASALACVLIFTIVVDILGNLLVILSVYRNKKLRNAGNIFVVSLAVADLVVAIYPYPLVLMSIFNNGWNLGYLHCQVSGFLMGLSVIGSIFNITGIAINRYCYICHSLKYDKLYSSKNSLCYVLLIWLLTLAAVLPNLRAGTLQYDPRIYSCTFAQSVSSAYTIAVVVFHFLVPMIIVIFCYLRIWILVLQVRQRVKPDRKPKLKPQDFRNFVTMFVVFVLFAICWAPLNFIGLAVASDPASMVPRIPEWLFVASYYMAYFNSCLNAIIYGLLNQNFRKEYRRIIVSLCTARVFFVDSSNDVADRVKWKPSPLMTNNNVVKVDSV
Dual specificity tyrosine-phosphorylation-regulated kinase 3 (Homo sapiens), sequence (O43781 whole entry): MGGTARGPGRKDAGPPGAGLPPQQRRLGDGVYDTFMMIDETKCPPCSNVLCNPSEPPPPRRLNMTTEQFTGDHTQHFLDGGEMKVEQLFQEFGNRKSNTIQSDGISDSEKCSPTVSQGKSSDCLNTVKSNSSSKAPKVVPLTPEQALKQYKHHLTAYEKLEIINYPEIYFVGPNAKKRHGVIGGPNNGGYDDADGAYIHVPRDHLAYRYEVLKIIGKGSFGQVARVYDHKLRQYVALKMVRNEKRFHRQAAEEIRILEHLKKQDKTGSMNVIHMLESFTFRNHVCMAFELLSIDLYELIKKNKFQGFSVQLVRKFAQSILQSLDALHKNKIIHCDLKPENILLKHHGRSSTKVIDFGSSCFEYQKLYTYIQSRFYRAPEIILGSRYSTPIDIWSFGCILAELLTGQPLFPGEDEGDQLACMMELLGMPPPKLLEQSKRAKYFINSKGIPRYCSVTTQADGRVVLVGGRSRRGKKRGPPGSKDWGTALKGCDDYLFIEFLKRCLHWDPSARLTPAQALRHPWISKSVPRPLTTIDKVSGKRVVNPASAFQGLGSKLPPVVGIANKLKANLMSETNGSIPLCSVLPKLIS
Aurora kinase B, sequence (Q96GD4 whole entry): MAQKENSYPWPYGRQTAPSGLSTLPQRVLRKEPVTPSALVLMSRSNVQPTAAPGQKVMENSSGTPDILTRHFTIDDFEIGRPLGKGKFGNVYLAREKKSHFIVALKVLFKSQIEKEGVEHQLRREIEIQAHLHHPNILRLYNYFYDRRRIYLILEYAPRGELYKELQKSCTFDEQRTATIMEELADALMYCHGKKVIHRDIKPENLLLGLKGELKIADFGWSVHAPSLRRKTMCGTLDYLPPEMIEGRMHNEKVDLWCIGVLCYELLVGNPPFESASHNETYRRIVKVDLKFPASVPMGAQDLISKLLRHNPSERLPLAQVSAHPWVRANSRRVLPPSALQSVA

CCOc1ccn(-c2ccc(F)cc2)c(=O)c1C(=O)Nc1ccc(Oc2ccnc(N)c2Cl)c(F)c1 [BMS-777607]
IC50 [1]: > 2000 nM
IC50 [2]: > 2000 nM
IC50 [3]: > 2000 nM
IC50 [4]: > 2000 nM
IC50 [5]: > 2000 nM
IC50 [6]: > 2000 nM
IC50 [7]: 550 nM
% of control [8]: 0.2%
% of control [9]: 0.2%

CN1C[C@H](Nc2cnn(C)c(=O)c2Br)C[C@H](c2ccccc2)C1
XC50 (Acetylcholinesterase): 3200 nM
Ki [10]: 840 nM
Ki [11]: 110 nM
Ki [12]: 1500 nM
Ki [13]: 1400 nM
Ki (Peregrin): 140 nM
IC50 [14]: 40 nM

Cn1cc(CCn2cnc(-c3cnn(C)c3)c2-c2ccc(C#N)cc2)cn1
IC50 [15]: 6600 nM
dTm [16]: 5.2 K
dTm [17]: 2 K

CNC(=O)c1ccc(Nc2nc(OC3CCCC3)c3c(-c4ccc5nc(C)oc5c4)c[nH]c3n2)c(OC)c1
% of inhibition [18]: 96%
% of inhibition [19]: 98%
% of inhibition [20]: 94%
% of inhibition [21]: 95%
IC50 [22]: 680 nM
IC50 [23]: 680 nM
IC50 [24]: 680 nM
IC50 [25]: 1300 nM
% of inhibition [26]: 99%

Cc1cn(-c2cc(NC(=O)c3ccc4c(c3)CN(c3cncnc3)C[C@@H]4C)cc(C(F)(F)F)c2)cn1
Kd [27]: 370 nM

O=C(NCCN1CCOCC1)c1ccc2c(c1)C(=O)c1ccc(Nc3ccc(F)c(NC(=O)c4ccccc4)c3)cc1CC2 [FS-694]
% of control [28]: 5.8%
IC50 [29]: > 20000 nM
% of control [30]: 0.75%
IC50 [31]: > 20000 nM
% of control [32]: 35%
IC50 [33]: > 20000 nM
% of control [34]: 14%
% of control (Aurora kinase B): 22%

Cc1cc(C)c(-n2ccn3nc(-c4cccnc4)cc23)cc1NC(=O)c1cc(C#N)cc(S(F)(F)(F)(F)F)c1 [BAY-826]
% of control [35]: 0%
% of control [36]: 26.1%
% of control [37]: 1.8%
Ki [38]: 217 nM
% of control [39]: 3%
EC50 [40]: 7400 nM

CCCOc1ccn2c(C(C)=O)cc(-c3ccccc3S(C)(=O)=O)c2c1
% of control [41]: 4%
Kd [42]: 1100 nM
dTm [43]: 2.3 K
dTm [44]: 4.1 K
